These results are taken from paper PMC8272914 (Journal of medicinal chemistry, 2019).

One data set addresses D3R (Homo sapiens, UniProt P35462). Conditions: cited from earlier work.
The next data set has as its target hD2R (Homo sapiens, UniProt P14416). Nature of the data set: Radioligand competition binding vs [3H]-. Conditions: vs. [3H]-(R)-(+)-7-OH-DPAT; for Ki: D2R Ki ± SEM, HEK293 cells stably expressing hD2R.
The target of another data set is hD3R (Homo sapiens, UniProt P35462). In words: Radioligand competition binding vs [3H]-. Conditions: for Ki: D3R Ki ± SEM, HEK293 cells stably expressing hD3R.
For data set [1] the following is noted: drug self-administration and drug discrimination, rats; cited from earlier work.
The mark [2] stands for this setting: Table 2, vs. [3H]-(R)-(+)-7-OH-DPAT.
[3] abbreviates: Table 1, vs. [3H]-(R)-(+)-7-OH-DPAT.

Sequence of hD2R (P14416 whole entry): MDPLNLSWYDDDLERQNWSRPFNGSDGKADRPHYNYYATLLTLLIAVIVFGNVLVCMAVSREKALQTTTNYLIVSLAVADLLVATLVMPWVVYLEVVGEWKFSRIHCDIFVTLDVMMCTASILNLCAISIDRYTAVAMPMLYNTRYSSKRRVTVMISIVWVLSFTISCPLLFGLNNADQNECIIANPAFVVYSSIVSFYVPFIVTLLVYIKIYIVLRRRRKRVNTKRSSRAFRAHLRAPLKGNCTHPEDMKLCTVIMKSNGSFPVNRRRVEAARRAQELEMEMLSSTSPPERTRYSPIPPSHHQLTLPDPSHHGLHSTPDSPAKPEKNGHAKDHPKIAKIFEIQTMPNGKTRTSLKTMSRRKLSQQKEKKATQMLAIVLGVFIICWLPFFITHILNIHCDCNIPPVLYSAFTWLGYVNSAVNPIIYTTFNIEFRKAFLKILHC
Sequence of hD3R (P35462 whole entry): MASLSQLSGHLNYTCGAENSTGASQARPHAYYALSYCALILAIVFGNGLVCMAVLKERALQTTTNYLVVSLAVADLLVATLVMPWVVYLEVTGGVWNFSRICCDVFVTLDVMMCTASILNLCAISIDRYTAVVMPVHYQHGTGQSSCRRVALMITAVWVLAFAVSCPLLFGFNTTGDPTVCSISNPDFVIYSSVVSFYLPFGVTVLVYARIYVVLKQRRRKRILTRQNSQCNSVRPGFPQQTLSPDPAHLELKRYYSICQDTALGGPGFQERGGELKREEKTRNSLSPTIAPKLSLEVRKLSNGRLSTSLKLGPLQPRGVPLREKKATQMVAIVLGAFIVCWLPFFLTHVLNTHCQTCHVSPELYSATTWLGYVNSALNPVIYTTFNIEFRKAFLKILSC
Sequence of D3R (P35462 whole entry): as above

Regarding `CCCN(CCC)C1CCc2ccc(O)cc2C1` (stereo not shown) [Compound 7-OH-DPAT, 7-Hydroxy-N,N-dipropyl-2-aminotetralin], the “D3R over D2R selectivity” value on D3R is ~ 10 fold.
As to `C[C@H]1CO[C@H](c2ccc(N)nc2)CN1CC1CC1CNC(=O)c1cc2ccccc2[nH]1` (stereo partly drawn) [Compound 39b, cis-N-((2-(((2R,5S)-2-(6-aminopyridin-3-yl)-5-methylmorpholino)methyl)cyclopropyl)methyl)-1H-indole-2-carboxamide], the Ki at hD2R (Table 2) stood at 7730 nM; on hD3R (setting [2]), 32900 nM.
In the same order, the values of `C[C@H]1CO[C@@H](c2ccc(N)nc2)CN1CC1CC1CNC(=O)c1cc2ccccc2[nH]1` (stereo partly drawn) [Compound 37b, trans-N-((2-(((2S,5S)-2-(6-aminopyridin-3-yl)-5-methylmorpholino)methyl)cyclopropyl)methyl)-1H-indole-2-carboxamide] are 707 ± 19.8 nM and 404 ± 34 nM.
The matching figures for `C[C@H]1CO[C@@H](c2ccc(N)nc2)CN1CC1CC1CNC(=O)c1cc2ccccc2[nH]1` (stereo partly drawn) [Compound 38b, cis-N-((2-(((2S,5S)-2-(6-aminopyridin-3-yl)-5-methylmorpholino)methyl)cyclopropyl)methyl)-1H-indole-2-carboxamide]: 120 ± 16.6 nM and 276 ± 30 nM.
For `Oc1ccc2c(c1)[C@H]1OCCN[C@@H]1CO2` [Compound 15, (4aR,10bR)-3,4,4a,10b-tetrahydro-2H,5H-chromeno[4,3-b][1,4]oxazin-9-ol], on hD3R (vs. [3H]-(R)-(+)-7-OH-DPAT), the “reduced affinity (loss of affinity) at both D2R and D3R relative to parent 1” value was above 200 fold; the “selectivity for D3R over D2R” value was determined as 10 fold.
Take `CCCN(CCC)c1ccc(C2CN(CCC)[C@@H](C)CO2)cn1` (stereo partly drawn) [Compound 20, 5-((5S)-5-methyl-4-propylmorpholin-2-yl)-N,N-dipropylpyridin-2-amine]: the D4R/D3R on hD3R (Table 2, ratio of Ki values vs. [3H]-(R)-(+)-7-OH-DPAT) is above 4.74.
Consider `O=C(NCCCCNC1COc2ccc(O)cc2C1=O)c1cc2ccccc2[nH]1` (stereo not shown) [Compound 19b, N-(4-((6-hydroxy-4-oxochroman-3-yl)amino)butyl)-1H-indole-2-carboxamide], for which the inhibition constant Ki at hD2R (Table 1) was 1430 nM; at hD3R (setting [3]), 1770 nM. On hD3R (vs. [3H]-(R)-(+)-7-OH-DPAT), the “reduced affinity (loss of affinity) at both D2R and D3R relative to parent 1” value is given as 100–1,000 fold.
On to `C[C@H]1CO[C@@H](c2ccc(N)nc2)CN1CC1CC1CNC(=O)c1cc2ccccc2[nH]1` (stereo partly drawn) [Compound 37a, trans-N-((2-(((2S,5S)-2-(6-aminopyridin-3-yl)-5-methylmorpholino)methyl)cyclopropyl)methyl)-1H-indole-2-carboxamide], for which the “selectivity for D2R over D3R” value at hD2R is listed as ~ 5 fold. On hD3R (setting [2]), this compound came in with a Ki of 1190 nM.
Consider `CCCN1CCO[C@@H]2c3cc(O)ccc3OC[C@H]21` [Compound 1, (4aR,10bR)-4-propyl-3,4,4a,10b-tetrahydro-2H,5H-chromeno[4,3-b][1,4]oxazin-9-ol], for which the “D3R over D2R selectivity” value at D3R is on record as ~ 10 fold.
In the case of `O=C(NCCCCNC1COc2ccc(O)cc2C1=O)c1cc2ccccc2[nH]1` (stereo not shown) [Compound 19a, N-(4-((6-hydroxy-4-oxochroman-3-yl)amino)butyl)-1H-indole-2-carboxamide], on hD3R (setting [3]), the inhibitory constant (Ki) turned out to be 354 ± 45.1 nM. In addition, the “reduced affinity (loss of affinity) at both D2R and D3R relative to parent 1” value on hD3R (vs. [3H]-(R)-(+)-7-OH-DPAT) was 100–1,000 fold.
Take `CCCN1CC(c2ccc(N)nc2)OC[C@@H]1C` (stereo partly shown) [Compound 2]: the abuse potential result in data set [1] is “lack of abuse potential”.
Regarding `CCCN[C@H]1CCc2nc(N)sc2C1` [Pramipexole, reference compound], the Ki on hD3R (setting [3]) is 1.69 nM.
Take `C[C@H]1CO[C@H](c2ccc(N)nc2)CN1CC1CC1CNC(=O)c1cc2ccccc2[nH]1` (stereo partly drawn) [Compound 39a, cis-N-((2-(((2R,5S)-2-(6-aminopyridin-3-yl)-5-methylmorpholino)methyl)cyclopropyl)methyl)-1H-indole-2-carboxamide]: on hD3R (setting [2]), the Ki was 26200 nM.
With `CCc1cc(Cl)c(OC)c(N2CCN(CCCCOc3ccc4c(c3)NC(=O)CC4)CC2)c1` [Compound 57, 7-(4-(4-(3-chloro-5-ethyl-2-methoxyphenyl)piperazin-1-yl)butoxy)-3,4-dihydroquinolin-2(1H)-one], on hD2R, the “selectivity for D2R over D3R” value is listed as 22 fold.
Turning to `C[C@H]1CO[C@@H](c2ccc(N)nc2)CN1CC1CC1CNC(=O)c1cc2ccccc2[nH]1` (stereo partly drawn) [Compound 38a, cis-N-((2-(((2S,5S)-2-(6-aminopyridin-3-yl)-5-methylmorpholino)methyl)cyclopropyl)methyl)-1H-indole-2-carboxamide], the inhibition constant Ki at hD2R (Table 2) was 1070 nM; on hD3R (setting [2]), 2150 nM.
As to `C[C@H]1CO[C@@H](c2ccc(N)nc2)CN1CCCCOc1ccc2c(c1)NC(=O)CC2` [Compound 26, 7-(4-((2S,5S)-2-(6-aminopyridin-3-yl)-5-methylmorpholino)butoxy)-3,4-dihydroquinolin-2(1H)-one], the “higher D3R affinity compared to its (2R,5S) diastereoisomer” value on hD3R (27 vs 25, 26 vs 24, vs. [3H]-(R)-(+)-7-OH-DPAT) came to 775 fold.
